According to patent US12281225B2, “Process for preparing stable polymers containing vinylimidazole” (BASF SE, priority 2018, dated 2025):

Columns and labels:
[1] = Analysis of active substance: preservative concentration before and after storage in VI-containing polymer solution; assay type: physicochemical; conditions: for active-substance concentration, 0 d, RT: before storage; for active-substance concentration, 14 d, 40° C.: storage 14 d at 40° C.; for active-substance concentration, 28 d, 40° C.: storage 28 d at 40° C.; for active-substance concentration, 60 d 40° C.: storage 60 d at 40° C.
Procedure, shortened: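 Preservatives (MIT, BIT, CMIT, OIT, DCOIT, iodopropynyl butyl carbamate) in aqueous vinylpyrrolidone–vinylimidazole copolymer solution quantified after dilution by isocratic RP18 chromatography with UV detection, using an acid-methanol eluent.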

[2] = Iodine color number according to DIN 6162:2014-09; assay type: physicochemical
[3] = system: Bacteria: Escherichia coli, Staphylococcus aureus, Pseudomonas aeruginosa, Pseudomonas putida, Burkholderia cepacia, Alcaligenes faecalis; assay: Preservation test with periodic inoculation, bacteria assessment; assay type: cell-based; conditions: for 60 d 40° C., bact. assess., 4th inoculation: sample stored 60 d at 40° C.; for Start sample measurement, bact. assess., 4th inoculation: freshly formulated
Procedure, shortened: (§1)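 Polymer samples (25 g) containing preservative were inoculated weekly, four times, with 10^9/ml bacterial or yeast mixtures (0.5 ml). Weekly streaks on agar were scored semiquantitatively (−− to ++) after 3 days at 25 °C, on fresh samples and on samples stored 60 days at 40 °C.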

[4] = system: Yeast: Candida albicans, Candida valida, Rhodotorula rura, Saccharomyces cerevisiae; assay: Preservation test with periodic inoculation, yeast assessment; assay type: cell-based; conditions: for Start sample measurement, yeast assess., 4th inoculation: freshly formulated; for 60 d 40° C., yeast assess., 4th inoculation: sample stored 60 d at 40° C.
Procedure, shortened: as §1

[5] = Polymer P5 (HP56) with stabilizer

With `CCCCCCCCn1sccc1=O` [OIT, octylisothiazolinone] the “active-substance concentration, 0 d, RT” value ([1]; in Polymer P1) was 250 ppm, the “active-substance concentration, 14 d, 40° C.” value ([1]; in Polymer P1) was 142 ppm and the “active-substance concentration, 28 d, 40° C.” value ([1]; in Polymer P1) was 89 ppm. The “active-substance concentration, 60 d 40° C.” value ([1]; in Polymer P1) was 72 ppm, the “active-substance concentration, 0 d, RT” value ([1]; in Polymer P2) was 250 ppm and the “active-substance concentration, 14 d, 40° C.” value ([1]; in Polymer P2) was 170 ppm. For the same molecule, the “active-substance concentration, 28 d, 40° C.” value ([1]; in Polymer P2) was 101 ppm, the “active-substance concentration, 60 d 40° C.” value ([1]; in Polymer P2) was 84 ppm and the “active-substance concentration, 0 d, RT” value ([1]; in Polymer P3) was 250 ppm. The “active-substance concentration, 14 d, 40° C.” value ([1]; in Polymer P3) was 163 ppm, the “active-substance concentration, 28 d, 40° C.” value ([1]; in Polymer P3) was 121 ppm and the “active-substance concentration, 60 d 40° C.” value ([1]; in Polymer P3) was 96 ppm. The “active-substance concentration, 0 d, RT” value ([1]; in Polymer P4) was 250 ppm, the “active-substance concentration, 14 d, 40° C.” value ([1]; in Polymer P4) was 165 ppm and the “active-substance concentration, 28 d, 40° C.” value ([1]; in Polymer P4) was 114 ppm. The “active-substance concentration, 60 d 40° C.” value ([1]; in Polymer P4) was 90 ppm, the “active-substance concentration, 0 d, RT” value ([1]; in Polymer P5 (HP56)) was 250 ppm and the “active-substance concentration, 14 d, 40° C.” value ([1]; in Polymer P5 (HP56)) was 142 ppm. For the same molecule, the “active-substance concentration, 28 d, 40° C.” value ([1]; in Polymer P5 (HP56)) was 89 ppm, the “active-substance concentration, 60 d 40° C.” value ([1]; in Polymer P5 (HP56)) was 72 ppm and the “active-substance concentration, 0 d, RT” value ([1]; in Polymer P6) was 250 ppm. For the same molecule, the “active-substance concentration, 14 d, 40° C.” value ([1]; in Polymer P6) was 135 ppm, the “active-substance concentration, 28 d, 40° C.” value ([1]; in Polymer P6) was 88 ppm and the “active-substance concentration, 60 d 40° C.” value ([1]; in Polymer P6) was 68 ppm. The “active-substance concentration, 0 d, RT” value ([1]; in Polymer P7) was 250 ppm, the “active-substance concentration, 14 d, 40° C.” value ([1]; in Polymer P7) was 139 ppm and the “active-substance concentration, 28 d, 40° C.” value ([1]; in Polymer P7) was 92 ppm. For the same molecule, the “active-substance concentration, 60 d 40° C.” value ([1]; in Polymer P7) was 73 ppm, the “active-substance concentration, 0 d, RT” value ([1]; in Polymer P8) was 250 ppm and the “active-substance concentration, 14 d, 40° C.” value ([1]; in Polymer P8) was 142 ppm. The “active-substance concentration, 28 d, 40° C.” value ([1]; in Polymer P8) was 89 ppm, the “active-substance concentration, 60 d 40° C.” value ([1]; in Polymer P8) was 72 ppm and the “active-substance concentration, 0 d, RT” value ([1]; in Polymer P9) was 250 ppm. For the same molecule, the “active-substance concentration, 14 d, 40° C.” value ([1]; in Polymer P9) was 128 ppm, the “active-substance concentration, 28 d, 40° C.” value ([1]; in Polymer P9) was 76 ppm and the “active-substance concentration, 60 d 40° C.” value ([1]; in Polymer P9) was 62 ppm. For the same molecule, the “Iodine color number, 60 d 40° C.” value ([2]; Polymer P1 with stabilizer) was 5.9, the “Iodine color number, start” value ([2]; Polymer P1 with stabilizer) was 2.8 and the “Iodine color number, 60 d 40° C.” value ([2]; Polymer P2 with stabilizer) was 8.0. For the same molecule, the “Iodine color number, start” value ([2]; Polymer P2 with stabilizer) was 3.0, the “Iodine color number, 60 d 40° C.” value ([2]; Polymer P3 with stabilizer) was 9.2 and the “Iodine color number, start” value ([2]; Polymer P3 with stabilizer) was 3.3. For the same molecule, the “Iodine color number, 60 d 40° C.” value ([2]; Polymer P4 with stabilizer) was 9.7, the “Iodine color number, start” value ([2]; Polymer P4 with stabilizer) was 3.3 and the “Iodine color number, 60 d 40° C.” value [2, 5] was 9.7. For the same molecule, the “Iodine color number, start” value [2, 5] was 3.4, the “Iodine color number, 60 d 40° C.” value ([2]; Polymer P6 with stabilizer) was 9.7 and the “Iodine color number, start” value ([2]; Polymer P6 with stabilizer) was 3.4. For the same molecule, the “Iodine color number, 60 d 40° C.” value ([2]; Polymer P7 with stabilizer) was 9.7, the “Iodine color number, start” value ([2]; Polymer P7 with stabilizer) was 3.4 and the “Iodine color number, 60 d 40° C.” value ([2]; Polymer P8 with stabilizer) was 10.0. The “Iodine color number, start” value ([2]; Polymer P8 with stabilizer) was 3.3, the “Iodine color number, 60 d 40° C.” value ([2]; Polymer P9 with stabilizer) was 15.5 and the “Iodine color number, start” value ([2]; Polymer P9 with stabilizer) was 4.0. For the same molecule, the “60 d 40° C., bact. assess., 4th inoculation” value ([3]; Polymer P1) was “+”, the “60 d 40° C., bact. assess., 4th inoculation” value ([3]; Polymer P2) was “+” and the “60 d 40° C., bact. assess., 4th inoculation” value ([3]; Polymer P3) was “++”. The “Start sample measurement, bact. assess., 4th inoculation” value ([3]; Polymer P4) was “− (slight growth, max. 100 colonies)”, the “60 d 40° C., bact. assess., 4th inoculation” value ([3]; Polymer P4) was “++” and the “Start sample measurement, bact. assess., 4th inoculation” value ([3]; Polymer P5 (HP56)) was “− (slight growth, max. 100 colonies)”. The “60 d 40° C., bact. assess., 4th inoculation” value ([3]; Polymer P5 (HP56)) was “++”, the “Start sample measurement, bact. assess., 4th inoculation” value ([3]; Polymer P6) was “− (slight growth, max. 100 colonies)” and the “60 d 40° C., bact. assess., 4th inoculation” value ([3]; Polymer P6) was “++”. For the same molecule, the “Start sample measurement, bact. assess., 4th inoculation” value ([3]; Polymer P7) was “− (slight growth, max. 100 colonies)”, the “60 d 40° C., bact. assess., 4th inoculation” value ([3]; Polymer P7) was “++” and the “60 d 40° C., bact. assess., 4th inoculation” value ([3]; Polymer P8) was “+”. The “60 d 40° C., bact. assess., 4th inoculation” value ([3]; Polymer P9) was “++”, the “Start sample measurement, yeast assess., 4th inoculation” value ([4]; Polymer P1) was “− (slight growth, max. 100 colonies)” and the “60 d 40° C., yeast assess., 4th inoculation” value ([4]; Polymer P1) was “+”. For the same molecule, the “Start sample measurement, yeast assess., 4th inoculation” value ([4]; Polymer P2) was “− (slight growth, max. 100 colonies)”, the “60 d 40° C., yeast assess., 4th inoculation” value ([4]; Polymer P2) was “++” and the “Start sample measurement, yeast assess., 4th inoculation” value ([4]; Polymer P3) was 0 (moderate growth, max. 400 colonies). The “60 d 40° C., yeast assess., 4th inoculation” value ([4]; Polymer P3) was “++”, the “Start sample measurement, yeast assess., 4th inoculation” value ([4]; Polymer P4) was 0 (moderate growth, max. 400 colonies) and the “60 d 40° C., yeast assess., 4th inoculation” value ([4]; Polymer P4) was “++”. The “Start sample measurement, yeast assess., 4th inoculation” value ([4]; Polymer P5 (HP56)) was 0 (moderate growth, max. 400 colonies), the “60 d 40° C., yeast assess., 4th inoculation” value ([4]; Polymer P5 (HP56)) was “++” and the “Start sample measurement, yeast assess., 4th inoculation” value ([4]; Polymer P6) was 0 (moderate growth, max. 400 colonies). For the same molecule, the “60 d 40° C., yeast assess., 4th inoculation” value ([4]; Polymer P6) was “++”, the “Start sample measurement, yeast assess., 4th inoculation” value ([4]; Polymer P7) was 0 (moderate growth, max. 400 colonies) and the “60 d 40° C., yeast assess., 4th inoculation” value ([4]; Polymer P7) was “++”. The “Start sample measurement, yeast assess., 4th inoculation” value ([4]; Polymer P8) was “− (slight growth, max. 100 colonies)”, the “60 d 40° C., yeast assess., 4th inoculation” value ([4]; Polymer P8) was “+” and the “Start sample measurement, yeast assess., 4th inoculation” value ([4]; Polymer P9) was “− (slight growth, max. 100 colonies)”. For the same molecule, the “60 d 40° C., yeast assess., 4th inoculation” value ([4]; Polymer P9) was “++”.
